Test [1] deals with T1, Rat Kidney Medullary V2 Receptors (vasopressin V2) (Rattus norvegicus, UniProt Q00788).
T1 construct: Medullary tissues from rat kidneys are dissected out; from tissue; host or cells: rat kidney medulla membranes
Nature of the test: Binding Assay to Rat Kidney Medullary V2 Receptors. The following applies: rat kidney medullary V2, [3H]Arg8-vasopressin. The procedure: Binding Assay to Rat Kidney Medullary V2 Receptors
Medullary tissues from rat kidneys are dissected out, cut into small pieces and let soak in a […] sodium chloride solution containing 1.0 mM EDTA with many changes of the liquid phase, until the solution is clear of blood. The tissue is homogenized in a 0.25M sucrose solution containing 1.0 mM EDTA and 0.1 mM PMSF using a Potter-Elvehjem homogenizer with a teflon pestle. The homogenate is filtered through several layers (4 layers) of cheese cloth. The filtrate is rehomogenized using a dounce homogenizer, with a tight fitting pestle. The final homogenate is contrifuged at 1500×g for 15 min. The nuclear pellet is discarded and the supernatant fluid recentrifuged at 40,000×g for 30 min. The resulting pellet formed contains a dark inner part with the exterior, slightly pink. The pink outer part is suspended in a small amount of 50.0 mMTris.HCl buffer, pH 7.4. The protein content is determined by the Lowry's method (Lowry et al, J. Biol. Chem., 1953). The membrane suspension is stored at -70° C., in 50.0 mMTris.HCl, containing 0.2% inactivated BSA and 0.1 mM PMSF in aliquots of 1.0 ml containing 10.0 mg protein per ml of suspension until use in subsequent binding experiments.
For binding experiments, the following is added in μl volume to wells of a 96 well format of a microtiter plate: 100.0 μl of 100.0 mM Tris.HCl buffer containing 0.2% heat inactivated BSA, 10.0 mM MgCl2 and a mixture of protease inhibitors: leupeptin, 1.0 mg %; aprotinin, 1.0 mg %; 1,10-phenanthroline, 2.0 mg %; trypsin inhibitor, 10.0 mg % and 0.1 mM PMSF, 20.0 μl of [^3 H]Arginine^8, vasopressin (S.A. 75.0 Ci/mmole) at 0.8 nM and the reaction initiated by the addition of 80.0 μl of tissue membranes (200.0 μg tissue protein). The plates are left undisturbed on the bench top for 120 min. to reach equilibrium. Non-specific binding is assessed in the presence of 1.0 μM of unlabeled ligand, added in 20 μl volume. For test compounds, these are solubilized in 50% dimethylsulfoxide (DMSO) and added in 20.0 μl volume to a final incubation volume of 200 μl. Upon completion of binding, the content of each well is filtered off, using a Brandel® cell Harvester (Gaithersburg, Md.). The radioactivity trapped on the filter disk by the ligand-receptor complex is assessed by liquid scintillation counting in a Packard LS Counter, with an efficiency of 65% for tritium. The data are analyzed for IC50 values by the LUNDON-2 program for competition (LUNDON SOFTWARE, OH).

Test [2] deals with T2, Vasopressin V1 Receptor Subtype in Human Platelet Membranes (Homo sapiens, UniProt P37288).
T2 construct: tissue Hudson Valley Blood Services, Westchester Medical Center, Valhalla, N.Y; host or cells: human platelet membranes from frozen platelet rich plasma
Put plainly: Binding to V1 Receptor Subtype in Human Platelet membranes. The procedure: Radioligand Binding Experiments with Human Platelet Membranes
Platelet Source: Hudson Valley Blood Services, Westchester Medical Center, Valhalla, N.Y.
Platelet Membrane Preparation:
Frozen platelet rich plasma (PRP), received from the Hudson Valley Blood Services are thawed to room temperature. The tubes containing the PRP are centrifuged at 16,000×g for 10 min. at 4° C. and the supernatant fluid discarded. The platelets resuspended in an equal volume of 50.0 mMTris.HCl, pH 7.5 containing 120 mM NaCl and 20.0 mM EDTA. The suspension is recentrifuged at 16,000×g for 10 min. This washing step is repeated one more time. The wash is discarded and the lysed pellets homogenized in low ionic strength buffer of Tris.HCl, 5.0 mM, pH 7.5 containing 5.0 mM EDTA. The homogenate is centrifuged at 39,000×g for 10 min. The resulting pellet is resuspended in Tris.HCl buffer, 70.0 mM, pH 7.5 and recentrifuged at 39,000×g for 10 min. The final pellet is resuspended in 50.0 mM Tris.HCl buffer pH 7.4 containing 120 mM NaCl and 5.0 mM HCl to give 1.0-2.0 mg protein per ml of suspension.
Binding to Vasopressin V1 Receptor Subtype in Human Platelet Membranes:
In wells of a 96 well format microtiter plate, add 100 μl of 50.0 mM Tris.HCl buffer containing 0.2% BSA and a mixture of protease inhibitors (aprotinin, leupeptin etc.). Then add 20 μl of [^3 H]Ligand: (Manning or Arg^8 Vasopressin), to give final concentrations ranging from 0.01 to 10.0 nM. Initiate the binding by adding 80.0 μl of platelet suspension (approx. 100 μg protein). Mix all reagents by pipetting the mixture up and down a few times. Non-specific binding is measured in the presence of 1.0 μM of unlabeled ligand (Manning or Arg^8 Vasopressin). Let the mixture stand undisturbed at room temperature for ninety (90) min. Upon this time, rapidly filter off the incubate under vacuum suction over GF/B filters, using a Brandel® Harvester. Determine the radioactivity caught on the filter disks by the addition of liquid scintillant and counting in a liquid scintillator

The target in test [3] is T3, oxytocin receptors (Rattus norvegicus, UniProt P70536).
T3 construct: The uteri are dissected out, cleaned of fat and connective tissues; from tissue; host or cells: uterus membranes of DES-treated female Sprague-Dawley rats
T3 sequence (P70536 1-388): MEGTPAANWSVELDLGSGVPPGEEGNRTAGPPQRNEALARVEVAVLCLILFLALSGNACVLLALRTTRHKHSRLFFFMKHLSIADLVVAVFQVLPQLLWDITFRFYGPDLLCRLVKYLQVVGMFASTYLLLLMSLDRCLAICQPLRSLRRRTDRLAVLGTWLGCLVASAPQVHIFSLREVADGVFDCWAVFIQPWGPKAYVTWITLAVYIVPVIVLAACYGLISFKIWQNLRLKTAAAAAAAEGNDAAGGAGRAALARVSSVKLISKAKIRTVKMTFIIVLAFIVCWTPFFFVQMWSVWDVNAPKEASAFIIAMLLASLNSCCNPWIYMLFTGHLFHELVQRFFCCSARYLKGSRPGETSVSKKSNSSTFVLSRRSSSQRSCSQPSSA
Put plainly: Oxytocin Receptor Binding. More on the design: species or system Sprague-Dawley rats. The following applies: 10 μM. The procedure: Oxytocin Receptor Binding
Female Sprague-Dawley rats weighing approximately 200-250 g are injected intramuscularly (i.m.) with 0.3 mg/kg of body weight of diethylstilbestrol (DES). The rats are sacrificed 18 hours later under pentobarbital anesthesia. The uteri are dissected out, cleaned of fat and connective tissues and rinsed in 50 ml of normal saline. The tissue pooled from six rats is homogenized in 50 ml of 0.01 mMTris.HCl, containing 0.5 mM dithiothreitol and 1.0 mM EDTA, adjusted to pH 7.4, using a polytron at setting 6 with three passes of 10 sec each. The homogenate is passed through two (2) layers of cheesecloth and the filtrate centrifuged at 1000×g for 10 min. The clear supernatant is removed and recentrifuged at 165,000×g for 30 min. The resulting pellet containing the oxytocin receptors is resuspended in 50.0 mM Tris.HCl containing 5.0 mM MgCl2 at pH 7.4, to give a protein concentration of 2.5 mg/ml of tissue suspension. This preparation is used in subsequent binding assays with [^3 H]Oxytocin.
Binding of 3,5-[^3 H]Oxytocin ([^3 H]OT) to its receptors is done in microtiter plates using [^3 H]OT, at various concentrations, in an assay buffer of 50.0 mM Tris.HCl, pH 7.4 and containing 5.0 mM MgCl2, and a mixture of protease inhibitors: BSA, 0.1 mg; aprotinin, 1.0 mg; 1,10-phenanthroline, 2.0 mg; […], 10.0 mg; and PMSF, 0.3 mg per 100 ml of buffer solution. Nonspecific binding is determined in the presence of 1.0 uM unlabeled OT. The binding reaction is terminated after 60 min., at 22° C., by rapid filtration through glass fiber filters using a Brandel® cell harvester (Biomedical Research and Development Laboratories, Inc., Gaithersburg, Md.). Competition experiments are conducted at equilibrium using 1.0 nM [^3 H]OT and varying the concentration of the displacing agents. The concentrations of agent displacing 50% of [^3 H]OT at its sites (IC50) are calculated by a computer assisted LUNDON-2 program (LUNDON SOFTWARE INC., Ohio, USA).

One may read the IC50 as the concentration that inhibits the measured activity by half. A higher IC50 goes with weaker potency. The term inhibition denotes how much of the control response was suppressed. Read a high inhibition as a response far below the control.

T1 sequence (Q00788 whole entry): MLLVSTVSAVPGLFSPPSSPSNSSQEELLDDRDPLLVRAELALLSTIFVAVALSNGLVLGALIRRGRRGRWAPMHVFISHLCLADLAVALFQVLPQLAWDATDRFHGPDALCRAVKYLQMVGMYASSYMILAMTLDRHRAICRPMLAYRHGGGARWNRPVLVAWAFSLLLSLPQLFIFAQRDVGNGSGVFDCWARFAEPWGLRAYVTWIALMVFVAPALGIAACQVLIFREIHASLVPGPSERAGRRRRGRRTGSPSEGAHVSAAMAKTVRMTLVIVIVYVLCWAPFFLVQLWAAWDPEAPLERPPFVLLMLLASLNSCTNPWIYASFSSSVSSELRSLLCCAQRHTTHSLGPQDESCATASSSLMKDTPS
T2 sequence (P37288 whole entry): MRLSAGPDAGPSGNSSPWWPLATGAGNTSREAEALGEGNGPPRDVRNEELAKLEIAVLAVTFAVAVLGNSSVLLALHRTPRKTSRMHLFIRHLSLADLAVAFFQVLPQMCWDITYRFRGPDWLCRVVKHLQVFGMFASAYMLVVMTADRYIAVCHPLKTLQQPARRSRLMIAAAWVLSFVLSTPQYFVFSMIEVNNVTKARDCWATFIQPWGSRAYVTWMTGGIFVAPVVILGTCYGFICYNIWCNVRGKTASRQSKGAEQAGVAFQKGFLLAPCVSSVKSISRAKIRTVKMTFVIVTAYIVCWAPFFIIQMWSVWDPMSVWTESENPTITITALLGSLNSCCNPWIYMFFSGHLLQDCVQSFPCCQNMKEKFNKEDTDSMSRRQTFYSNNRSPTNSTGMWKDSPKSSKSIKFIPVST

In the case of `Cc1ccc(F)cc1C(=O)Nc1ccc(C(=O)N2CCC=Cc3sccc32)c(Cl)c1` [Example 184, N-[4-[(5,6-Dihydro-4H-thieno[3,2-b]azepin-4-yl)carbonyl]-3-chlorophenyl]-5-fluoro-2-methylbenzamide], the half-inhibitory concentration (IC50) amounted to 0.03 µM in test [1] and 1.3 µM in test [2]. The molecule also returned an inhibition at 10 µM in test [3] of 76%.

The values are drawn from patent US5696112A, “Fused heterocyclic azepines as vasopressin antagonists” (American Cyanamid Company, priority 1995, dated 1997).
